Assay results from ChEMBL document CHEMBL1156829 (Proc Natl Acad Sci U S A, 2008).

How the values were obtained:
[1] = NOVARTIS: Cytotoxicity against human hepatocellular carcinoma cell line (Huh7); type: toxicity, cell-based, Huh-7; details: Huh7 cells (hepatocellular carcinoma cell line)
Plasmodium falciparum [2] = experiment: NOVARTIS: Inhibition of Plasmodium falciparum W2 (drug-resistant) proliferation in erythrocyte-based infection assay; type: functional, organism-based; details: Plasmodium falciparum, W2; read-out: EC50
Plasmodium falciparum [3] = experiment: NOVARTIS: Inhibition of Plasmodium falciparum 3D7 (drug-susceptible) proliferation in erythrocyte-based infection assay; type: functional, organism-based; details: Plasmodium falciparum, 3D7

SMILES | CC50 [1] | EC50 (Plasmodium falciparum [2]) | EC50 (Plasmodium falciparum [3])
c1ccc(/C2=N/c3ccccc3/N=C(/c3ccccc3)c3ccccc32)cc1 | > 100 µM | 770 nM | 678 nM
Cc1ccc(NC(C)C(=O)Nc2ccc(C#N)cc2)cc1S(=O)(=O)N1CCCCC1 (stereo not given) | 59.5 µM | 446 nM | 406 nM
Cc1cc(Nc2ccc(Cl)cc2)nc(NCc2ccccc2)n1 | 19.6 µM | 150 nM | 91.9 nM
Cc1cc(Nc2ccc(O)cc2)nc2cccc(O)c12 | 52.5 µM | 407 nM | 468 nM
CCCN(CCC)S(=O)(=O)c1ccc(C(=O)Nc2ccccc2C(=O)Oc2ccc3c(c2)c(C(=O)OCC)c(C)n3-c2ccccc2)cc1 | > 100 µM | 744 nM | 726 nM
CN(C)CCNc1cc(-c2ccc3ccccc3c2)nc2ccccc12 | > 100 µM | 729 nM | 810 nM
CNC(=O)c1ccc(NC(=O)Nc2ccc(C3=NCCCN3)cc2)cc1NC(=O)Nc1ccc(C2=NCCCN2)cc1 | > 10 µM | 78.3 nM | 126 nM
Cc1ccc2cc3c(N)c4cccc(C)c4nc3nc2c1 | > 10 µM | 73.6 nM | 115 nM
COc1ccc2nc(C)cc(Nc3ccc(Oc4ccc5ccccc5c4Cl)c(Cl)c3)c2c1 | 64.1 µM | 491 nM | 100 nM
O=[N+]([O-])c1ccc(C=NNc2nc3ccccc3[nH]2)cc1 | > 100 µM | 742 nM | 818 nM
CCOc1ccc(-c2nc(NC(=O)CS(=O)(=O)c3ccccc3)sc2C)cc1 | > 100 µM | 740 nM | 525 nM
OCCNc1nc(Nc2ccc(F)cc2)nc2ccccc12 | > 100 µM | 749 nM | 223 nM
CN(C)CCCNc1ccnc2cc(Cl)ccc12 | > 10 µM | 76.3 nM | 76.9 nM
CCOc1ccc(C(=O)C[N+]2=C(C)c3ccc(C)n3CC2)cc1 | > 100 µM | 767 nM | 1630 nM
Cc1cnc(NC(=O)Nc2ccc(-c3ccc(NC(=O)Nc4ncc(C)s4)c(C)c3)cc2C)s1 | > 10 µM | 76.7 nM | 34.1 nM
COc1ccc(N2CCN(C(CNC(=O)CC(C)C)c3ccco3)CC2)cc1 (stereo not given) | > 100 µM | 767 nM | 6690 nM
CC(C)CN(C(C)C(=O)NC(CN1CCCC1)c1ccccc1)S(=O)(=O)Cc1ccccc1 (stereo not given) | > 10 µM | 76.7 nM | 60.2 nM
CN(C)c1ccc(NC=CC(=O)C(C)(C)C)cc1 | 36.9 µM | 282 nM | 1050 nM
CCOC(=O)c1cc(-c2ccc(OC)cc2)n(CCC(=O)NCc2ccc(OC)cc2)c1C | > 100 µM | 781 nM | 987 nM
Nc1c(C(=O)Nc2ccc(Br)cc2)sc2nc3c(c(-c4cccs4)c12)CCC3 | > 100 µM | 776 nM | 1040 nM
COc1ccc(-c2cc(-c3ccc(C)cc3)[nH]n2)c(O)c1 | 25.6 µM | 198 nM | 1520 nM
CC(NCc1cc(-c2ccccc2)ccc1O)c1cccc2ccccc12 (stereo not given) | > 10 µM | 77.3 nM | 1210 nM
COc1ccc(NC2=C(c3ccc(C(F)(F)F)cc3)C(=O)c3ccccc32)cc1 | > 100 µM | 772 nM | 339 nM
CCN(CC)c1ccc(NC(=O)c2cccs2)cc1 | > 100 µM | 770 nM | 414 nM

SMILES | CC50 [1] | EC50 (Plasmodium falciparum [2]) | EC50 (Plasmodium falciparum [3])
C[n+]1c2n(c3ccccc31)N=C(c1ccccc1)CS2 | 45.1 µM | 347 nM | 454 nM
N#Cc1c(N)nc2sc(C(=O)Nc3ccc(Br)cc3)c(N)c2c1-c1ccccc1 | > 100 µM | 763 nM | 8210 nM
CC(Oc1cccc(Cl)c1)C(=O)N1CCc2ccccc21 (stereo not given) | > 100 µM | 750 nM | 748 nM
Cc1ccn2c(NC(C)(C)CC(C)(C)C)c(-c3ccccc3OC(=O)C3CCC3)nc2c1 | > 10 µM | 75.7 nM | 822 nM
COc1cc2nc(Nc3ccc(F)cc3)nc(N)c2cc1OC | 18.4 µM | 139 nM | 117 nM
COc1cc(CN2CCC3(CC2)CC3C(=O)NCCc2ccccc2OC)ccc1O (stereo not given) | > 100 µM | 739 nM | 2350 nM
Cc1cc(C)nc(NNc2c([N+](=O)[O-])cccc2[N+](=O)[O-])n1 | 22 µM | 167 nM | 1800 nM
CC(=O)Nc1ccc(S(=O)(=O)N2CCC(c3nc(-c4cccnc4)no3)CC2)cc1 | > 100 µM | 736 nM | > 9640 nM
CCC(=O)NNc1cc(N2CCCC2)nc(N2CCCC2)n1 | > 100 µM | 760 nM | 790 nM
CCCN(CCC)S(=O)(=O)c1cc(Br)cc2c1N(C(=O)CC)CC2 | > 100 µM | 760 nM | 476 nM
Cc1ccc(-[n+]2c(-c3ccccc3)cn3c2CCCCC3)cc1 | 67.8 µM | 515 nM | 605 nM
CCOC(=O)c1c(N=Cc2cccc(OC)c2O)sc2c1CCN(C)C2 | > 100 µM | 744 nM | > 12500 nM
CCCCOc1ccc(N(C(C)=O)C2=C(N3CCOCC3)C(=O)c3ccccc3C2=O)cc1 | 41 µM | 304 nM | 232 nM
CCCCCCCCC(=O)Oc1ccccc1-c1nc2cc(C)ccn2c1NC(C)(C)CC(C)(C)C | > 10 µM | 74 nM | 713 nM
COc1ccc(Nc2nc(NN=Cc3cc([N+](=O)[O-])ccc3OC)nc(Nc3ccc([N+](=O)[O-])cc3)n2)cc1 | > 100 µM | 762 nM | 728 nM
CCOC(=O)NN=C(C)c1ccc(C(C)=NNC(=O)OCC)cc1 | > 100 µM | 747 nM | > 5590 nM
Clc1ccc(-c2csc3ncnc(NCc4ccncc4)c23)cc1 | > 100 µM | 746 nM | 2890 nM
CCCCCCC(=O)Oc1ccccc1-c1nc2ccccn2c1NC(C)(C)CC(C)(C)C | > 10 µM | 78.3 nM | 1060 nM
O=C(NC1CCN(CC(O)CN(Cc2ccccc2)S(=O)(=O)c2ccccc2)C1)c1ccccc1 (stereo not given) | > 7.27 µM | 56.9 nM | 81.9 nM
OC(CN1CCN(Cc2ccccc2)CC1)Cn1c2ccc(I)cc2c2cc(I)ccc21 (stereo not given) | 20.1 µM | 148 nM | 651 nM
O=c1sc(=NCC(O)c2ccc(Cl)c(Cl)c2)[nH]c2ccccc12 (stereo not given) | > 10 µM | 73.1 nM | 757 nM
CCCNC1=C(c2ccc(OC)cc2)C(=O)c2ccccc21 | > 100 µM | 754 nM | 3380 nM
CN(C)c1ccc(/C=C/C(=O)NC(=O)c2ccccc2O)cc1 | > 10 µM | 75.2 nM | 84.4 nM
CCOc1ccc2[nH]c3c(NCCCN4CCOCC4)ncnc3c2c1 | 36.4 µM | 267 nM | 749 nM

SMILES | CC50 [1] | EC50 (Plasmodium falciparum [2]) | EC50 (Plasmodium falciparum [3])
CC[n+]1c(C)n(-c2ccccc2)c2ccc(C3Nc4ccccc4S3)cc21 (stereo not given) | > 100 µM | 734 nM | 1180 nM
COc1nncc(-c2cnnc(SC)n2)n1 | 28.4 µM | 219 nM | 237 nM
CCn1c(SCCCCNC(=O)c2cc([N+](=O)[O-])cc([N+](=O)[O-])c2)nc(-c2ccc(C)cc2)c1-c1ccc(C)cc1 | > 10 µM | 73.1 nM | 679 nM
CCc1ccc(-n2nnc(C(=O)Nc3ccccc3Cl)c2C)cc1 | > 10 µM | 77.5 nM | > 1680 nM
Cc1oc(C)c2c(=O)cc(-c3cccs3)cc(O)c12 | > 100 µM | 758 nM | 1220 nM
COc1ccc2c(c1)CC1c3c(cc4c(c3-2)OCO4)CCN1C (stereo not given) | 15.6 µM | 121 nM | 38.5 nM
CCc1c2ccc(C)n2cc[n+]1CC | > 100 µM | 749 nM | 610 nM
COc1ccc2cc(CNCCc3cccc(Cl)c3)c(N3CCC(=O)N(CCN(C)C)CC3)nc2c1 | > 10 µM | 77.2 nM | > 1250 nM
COc1ccc(OC)c(-c2ccc(O)c(CNCCc3ccccc3)c2)c1 | > 10 µM | 77.1 nM | 657 nM
COc1ccc(S(=O)(=O)N=C2C=C(Nc3ccccc3OC)C(=O)c3ccccc32)cc1 | 20.1 µM | 154 nM | 338 nM
CCc1ccc(Nc2cc(C)nc3nc(C)nn23)cc1 | > 100 µM | 768 nM | 574 nM
Cc1cccc(C(=O)NCc2nnc(S)n2-c2cccc(C(F)(F)F)c2)c1 | > 100 µM | 750 nM | 2180 nM
COc1ccc(OC)c(NC(=O)COc2cc3ccccc3cc2C(=O)Nc2cc(OC)c(Cl)cc2OC)c1 | > 100 µM | 782 nM | 1150 nM
O=C(c1cc2n(n1)C(C(F)(F)F)CC(c1cccs1)N2)N1CCN(C(c2ccccc2)c2ccccc2)CC1 (stereo not given) | > 100 µM | 745 nM | 341 nM
COc1cc(CN(CC[C@H](c2ccccc2)c2c(O)ccc3ccccc23)Cc2ccccc2)cc(OC)c1 | > 10 µM | 75.4 nM | 702 nM
Cc1cc(C)n(CC(O)Cn2c3ccc(Cl)cc3c3cc(Cl)ccc32)n1 (stereo not given) | 45.5 µM | 342 nM | 1010 nM
CCCN(CCC)S(=O)(=O)c1cc(Br)cc2c1N(C(=O)C1CC1)CC2 | > 100 µM | 736 nM | 410 nM
Cc1ccn2c(NC(C)(C)CC(C)(C)C)c(-c3ccccc3OC(=O)C(C)(C)CCl)nc2c1 | > 10 µM | 76.3 nM | 699 nM
CN1C2CCC1C(=Cc1ccsc1)C(=O)C2=Cc1ccsc1 | > 100 µM | 748 nM | 676 nM
c1ccc(Cn2c(N=Nc3c(Nc4ccccc4)ccc4ccccc34)nc3ccccc32)cc1 | 88 µM | 669 nM | 2730 nM
CCCCOC(=O)c1ccc(NC2=C(c3ccc(OC)cc3)C(=O)c3ccccc32)cc1 | > 100 µM | 758 nM | 1210 nM
CCC1=[N+](C)c2cccc3cccc(c23)N1C | > 100 µM | 739 nM | 958 nM
